From article PMC5795052 (Open Biology, 2018)
pEC50: −log10 of the molar value.

Columns and labels:
[1] = system: ACKR3; test: β-arrestin 2 recruitment assay (PRESTO-Tango) for ACKR3; assay type: cell-based, human
Source text: (§1) The human AVPR1A cDNA sequence was from the AVPR1A-TANGO plasmid (Addgene, plasmid #66225). The hRLuc cDNA was PCR-amplified from pIRES-Myc-hCXCR4-Rluc, which was generously provided by Dr Michel Bouvier, with primers carrying the AgeI and XbaI sites at either end, respectively, and ligated with the C-terminus of AVPR1A at the corresponding sites. Human CXCR4 and ACKR3 cDNAs were from the CXCR4-TANGO (Addgene, plasmid #66262) and the ACKR3-TANGO (Addgene, plasmid #66265) plasmids. The EYFP cDNA was PCR-amplified from pEYFP with primers harbouring AgeI and XbaI sites and ligated with the C-terminus of ACKR3. All plasmids were confirmed by sequencing.
hVSMCs (primary aortic smooth muscle cells, ATCC PCS-100-012), A7r5 cells (ATCC-CRL-1444) and HEK293T cells (ATCC-CRL-11268) were purchased from American Type Culture Collection. hVSMCs were cultured in vascular basal media (ATCC PCS-100-030) supplemented with the vascular smooth muscle growth kit (ATCC PCS-100-042), containing 100 U ml^−1 penicillin and 100 µg ml^−1 streptomycin. hVSMCs were used between passages 2–5. HEK293T and A7r5 cells were cultured in high-glucose Dulbecco's Modified Eagle's Medium containing 10 mg ml^−1 sodium pyruvate, 2 mM L-glutamine, 10% (vol/vol) FBS, 1× non-essential amino acids, 100 U ml^−1 penicillin and 100 µg ml^−1 streptomycin. The HTLA cell line, a HEK293 cell line stably expressing a tTA-dependent luciferase reporter and a β-arrestin 2–TEV fusion gene were generously provided by the laboratory of Dr Bryan Roth and maintained in high-glucose Dulbecco's Modified Eagle's Medium supplemented with 10% (vol/vol) FBS, 1× non-essential amino acids, 100 U ml^−1 penicillin, 100 µg ml^−1 streptomycin, 50 µg ml^−1 hygromycin B and 2 µg ml^−1 puromycin. […]
The PRESTO-Tango (parallel receptorome expression and screening via transcriptional output, with transcriptional activation following arrestin translocation) assay was performed as recently described. […] Plates were then incubated at room temperature before measuring luminescence on a Biotek Synergy II plate reader.

[2] = system: aVP-induced IP3 production in hVSMC; test: IP3 production (ELISA) in hVSMC upon aVP stimulation; assay type: cell-based, human; conditions: ACKR3 ligands 1 µM, 15 min, then 1 µM aVP for 5 min; n = 4; figure 1f; *p < 0.05 versus vehicle-treated cells
Procedure: (§2) hVSMCs (primary aortic smooth muscle cells, ATCC PCS-100-012), A7r5 cells (ATCC-CRL-1444) and HEK293T cells (ATCC-CRL-11268) were purchased from American Type Culture Collection. hVSMCs were cultured in vascular basal media (ATCC PCS-100-030) supplemented with the vascular smooth muscle growth kit (ATCC PCS-100-042), containing 100 U ml^−1 penicillin and 100 µg ml^−1 streptomycin. hVSMCs were used between passages 2–5. HEK293T and A7r5 cells were cultured in high-glucose Dulbecco's Modified Eagle's Medium containing 10 mg ml^−1 sodium pyruvate, 2 mM L-glutamine, 10% (vol/vol) FBS, 1× non-essential amino acids, 100 U ml^−1 penicillin and 100 µg ml^−1 streptomycin. The HTLA cell line, a HEK293 cell line stably expressing a tTA-dependent luciferase reporter and a β-arrestin 2–TEV fusion gene were generously provided by the laboratory of Dr Bryan Roth and maintained in high-glucose Dulbecco's Modified Eagle's Medium supplemented with 10% (vol/vol) FBS, 1× non-essential amino acids, 100 U ml^−1 penicillin, 100 µg ml^−1 streptomycin, 50 µg ml^−1 hygromycin B and 2 µg ml^−1 puromycin. All cells were cultured in a humidified environment at 37°C, 5% CO2.
ACKR3 and CXCR4 siRNA gene silencing was performed as described previously. In brief, cells were grown in 2 ml Accell siRNA delivery media per well (Dharmacon) in six-well plates (Nunc). Commercially available Accell ACKR3 and CXCR4 siRNA were reconstituted with 1× siRNA buffer to a stock concentration of 100 µM. Cells were then transfected with 1 µM ACKR3/CXCR4 siRNA and incubated for 72 h at 37°C, 5% CO2. Accell NT-siRNA pool was used as a negative control. After 72 h, cells were assayed for receptor cell surface expression and used for signalling experiments.
IP3 enzyme-linked immunosorbent assays were purchased from LS Bio and performed as per the manufacturer's protocol (LS BIO F10644). In brief, hVSMCs were grown to confluency in six-well dishes (Nunc) and then treated as described in the Results section. Cells were then washed once with cold PBS, 225 µl of cold PBS was added to each well and cells were lysed by ultrasonication. The cell lysate was centrifuged for 10 min at 4°C at 1500g to remove cellular debris. The total protein concentration in the supernatant was determined with the Bio-Rad DC Protein Assay as per the manufacturer's protocol (Bio-Rad 500-0116). Equivalent amounts of total protein were added to the ELISA strips diluted in the provided sample diluent (1 : 5 and 1 : 10). The assay was then completed as per the manufacturer's protocol. Optical densities were read on a Biotek Synergy II microplate reader (absorbance at 450 nm), and IP3 concentrations were extrapolated from the standard curve.

[3] = system: ACKR3; test: β-arrestin 2 recruitment assay (PRESTO-Tango) for ACKR3 co-expressed with pcDNA3 or HA-AVPR1A; assay type: cell-based, human; conditions: ACKR3-Tango/HA-AVPR1A versus ACKR3-Tango/pcDNA3; n = 3; figure 9e,f
Source text: as §1, §2
The PRESTO-Tango (parallel receptorome expression and screening via transcriptional output, with transcriptional activation following arrestin translocation) assay was performed as recently described. The Tango plasmids were a gift from Dr Bryan Roth (all from Addgene). HTLA cells (2.5 × 10^5 per well) were seeded in a six-well plate and transfected with 1.5 µg of the Tango plasmids using Lipofectamine 3000 (ThermoScientific). The following day, transfected HTLA cells (1 × 10^5 cells per well) were plated onto poly-L-lysine precoated 96-well microplates and allowed to attach to the plate surface for at least 4 h prior to treatment. Proteins used for treatment were prepared in twice the final concentration in culture media, added at a 1 : 1 vol/vol ratio and incubated overnight at 37°C, 5% CO2 in a humidified environment. The following morning, media were removed from cell culture plates and replaced with a 100 µl 1 : 5 mixture of Bright-Glo (Promega) and 1× HBSS, 20 mM HEPES solution. Plates were then incubated at room temperature before measuring luminescence on a Biotek Synergy II plate reader.

[4] = system: ACKR3; parameters: method as in PMID 27875312; conditions: BRET-based assay; CXCL12 versus CXCL11; ref [30]; cited from earlier work
[5] = system: rat mesenteric arteries (PE-induced vasoconstriction); test: Pressure myography, PE-preconstricted isolated rat mesenteric arteries; conditions: 10 µM ligand; for effect on PE-induced vasoconstriction, comparison of ACKR3 ligands: 2 µM PE, figure 1d, vehicle n = 5, CXCL11 n = 7, CXCL11 (3–73) n = 9, CXCL12 n = 14, p < 0.05 vehicle versus CXCL11 and CXCL12, p > 0.05 CXCL11 versus CXCL12; for effect on PE-induced vasoconstriction (outer diameter % change): arteries at 80 mmHg preconstricted with 2 µM PE, figure 1a, vehicle n = 4, CXCL11 n = 6, ubiquitin n = 7, *p < 0.05 versus vehicle
Procedure: (§5) (a,b) Pressure myography with rat mesenteric arteries. […] (d) Pressure myography experiments as in (a); PE-induced vasoconstriction. All ACKR3 ligands were tested at a concentration of 10 µM. […] All ACKR3 ligands were tested at a concentration of 10 µM.
(§6) Pressure myography was performed as described in detail previously with slight modifications [7, 63]. Male Sprague–Dawley rats (Harlan) were anaesthetized with 3.5% isoflurane. The mesentery was immediately removed and placed in 130 mM NaCl, 4.7 mM KCl, 1.18 mM KH2PO4, 1.17 mM MgSO4, 14.9 mM NaHCO3, 5.5 mM D-glucose, 0.026 mM EDTA and 1.16 mM CaCl2 aerated with 95% O2, 5% CO2 at 37°C. The animal was then euthanized by cardiectomy and bilateral decompression of the lungs. Third- or fourth-order mesenteric arteries were dissected free from the mesentery, mounted onto two glass cannulae with United States Pharmacopeia (USP) scale 11-0 sutures and pressurized to 80 mmHg in a DMT 110P pressure myograph system (DMT-USA). The intraluminal solution and the vessel bath solution were the same as described before. The vessel bath solution was continuously aerated with 95% O2, 5% CO2 throughout the experiment.

[6] = system: rat mesenteric arteries (aVP-induced vasoconstriction); test: Pressure myography, aVP-preconstricted isolated rat mesenteric arteries; conditions: 10 µM ligand
Procedure: as §5, §6

[7] = target: T1, AVPR1A (Homo sapiens, UniProt P37288); test: β-arrestin 2 recruitment assay (PRESTO-Tango) for AVPR1A without ACKR3 co-expression; assay type: cell-based; parameters: FLAG (N); Tango module (C-terminal fusion of the PRESTO-Tango plasmid); host or cells: HTLA cells (HEK293 line with tTA-dependent luciferase reporter and β-arrestin 2–TEV fusion); conditions: AVPR1A-Tango/pcDNA3; n = 3; figure 9c
Source text: as §1
(§3) hVSMCs (primary aortic smooth muscle cells, ATCC PCS-100-012), A7r5 cells (ATCC-CRL-1444) and HEK293T cells (ATCC-CRL-11268) were purchased from American Type Culture Collection. hVSMCs were cultured in vascular basal media (ATCC PCS-100-030) supplemented with the vascular smooth muscle growth kit (ATCC PCS-100-042), containing 100 U ml^−1 penicillin and 100 µg ml^−1 streptomycin. hVSMCs were used between passages 2–5. HEK293T and A7r5 cells were cultured in high-glucose Dulbecco's Modified Eagle's Medium containing 10 mg ml^−1 sodium pyruvate, 2 mM L-glutamine, 10% (vol/vol) FBS, 1× non-essential amino acids, 100 U ml^−1 penicillin and 100 µg ml^−1 streptomycin. […]
Target sequence in this assay (P37288 whole entry, the tested form may be a part): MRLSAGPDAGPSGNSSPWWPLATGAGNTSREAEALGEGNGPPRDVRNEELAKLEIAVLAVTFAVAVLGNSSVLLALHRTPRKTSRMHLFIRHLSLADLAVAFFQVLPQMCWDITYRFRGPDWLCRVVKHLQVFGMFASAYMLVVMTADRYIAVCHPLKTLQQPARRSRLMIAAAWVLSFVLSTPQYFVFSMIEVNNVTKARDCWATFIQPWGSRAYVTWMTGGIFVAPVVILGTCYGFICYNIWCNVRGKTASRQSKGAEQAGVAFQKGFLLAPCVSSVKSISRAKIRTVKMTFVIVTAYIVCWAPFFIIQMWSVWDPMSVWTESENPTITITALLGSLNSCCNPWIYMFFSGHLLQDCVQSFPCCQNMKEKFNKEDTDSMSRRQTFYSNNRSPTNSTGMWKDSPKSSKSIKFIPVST

[8] = target: T1, AVPR1A; test: β-arrestin 2 recruitment assay (PRESTO-Tango) for AVPR1A co-expressed with HA-ACKR3; assay type: cell-based; parameters: FLAG (N); Tango module (C-terminal fusion of the PRESTO-Tango plasmid); ACKR3 cDNA from plasmid #66265; host or cells: HTLA cells (HEK293 line with tTA-dependent luciferase reporter and β-arrestin 2–TEV fusion); conditions: n = 3, figure 9c
Source text: as §1, §3
Target sequence in this assay (P37288 whole entry, the tested form may be a part): as above
Target sequence in this assay (P25106 whole entry partner, the tested form may be a part): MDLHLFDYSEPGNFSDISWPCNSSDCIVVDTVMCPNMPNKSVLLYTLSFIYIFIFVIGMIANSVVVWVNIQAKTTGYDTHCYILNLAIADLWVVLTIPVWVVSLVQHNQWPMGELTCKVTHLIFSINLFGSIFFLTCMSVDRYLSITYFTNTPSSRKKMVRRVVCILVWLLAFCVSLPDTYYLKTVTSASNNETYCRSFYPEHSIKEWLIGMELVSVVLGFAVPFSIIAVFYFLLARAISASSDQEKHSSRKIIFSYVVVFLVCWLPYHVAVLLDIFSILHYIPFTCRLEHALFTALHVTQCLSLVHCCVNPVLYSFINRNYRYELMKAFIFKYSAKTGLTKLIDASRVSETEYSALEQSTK

[9] = system: AVPR1A; test: Receptor internalization by flow cytometry, AVPR1A; assay type: cell-based, human; conditions: hVSMC, 1 µM agonist, up to 60 min; n = 3; figure 10b
Procedure: (§4) The cells were washed once with ice cold DPBS, blocked and stained with rabbit anti-AVPR1A (Bioss BS-11598R) and mouse anti-ACKR3 (R&D MAB42273) antibodies at 1 : 200 dilution for 1 h on ice. Cells were then washed twice with FACS wash buffer (1× PBS, 2% FBS and 0.01% NaN3), and secondary antibodies were added at a 1 : 500 dilution and incubated for 30 min on ice (donkey anti-rabbit Alexa Fluor 647, Invitrogen A-31573 and donkey anti-mouse Alexa Fluor 488, Invitrogen A-21202). Cells were washed twice with FACS wash buffer and then fixed with 4% paraformaldehyde at room temperature for 15 min. After two additional washes, the cells were counted on a BD FACS Canto II (BD Biosciences) flow cytometer. The fluorescence intensities of at least 3 × 10^4 cells were recorded and analysed using the FlowJo software (Tree Star).

[10] = system: ACKR3; test: Receptor internalization by flow cytometry, ACKR3; assay type: cell-based, human; conditions: hVSMC, 1 µM agonist, up to 60 min; n = 3; figure 10c
Procedure: as §4

[11] = system: ACKR3; parameters: method as in 2 sources, one per row (each row's own in cited_ref): ref [29]–[32] = [29]; PMID 16940167; doi:10.1084/jem.20052144; 29 Burns JM et al. 2006 A novel chemokine receptor for SDF-1 and I-TAC involved in cell survival, cell adhesion, and tumor development . J. Exp. Med. 203 , 2201 – 2213 . ( doi:10.1084/jem.20052144 ) 1 || [30]; PMID 27875312; doi:10.1074/jbc.M116.762252; 30 Benredjem B , Girard M , Rhainds D , St-Onge G , Heveker N 2017 Mutational analysis of atypical chemokine receptor 3 (ACKR3/CXCR7) interaction with its chemokine ligands CXCL11 and CXCL12 . J. Biol || [31]; PMID 9918548; 31 Gifford AN , Bruneus M , Gatley SJ , Lan R , Makriyannis A , Volkow ND 1999 Large receptor reserve for cannabinoid actions in the central nervous system . J. Pharmacol. Exp. Ther. 288 , 478 – 483 . || [32]; PMID 8779988; doi:10.1152/ajplung.1996.270.2.L199; 32 Ethier MF , Schaefer OP , Samant N , Yamaguchi H , Madison JM 1996 Muscarinic receptor reserve for inhibition of cAMP accumulation in bovine trachealis cells . Am. J. Physiol. 270 , L199 – L207 . 8 ||| ref [24] = [24]; PMID 21757744; doi:10.1074/jbc.M111.233742; 24 Saini V , Staren DM , Ziarek JJ , Nashaat ZN , Campbell EM , Volkman BF , Marchese A , Majetschak M 2011 The CXC chemokine receptor 4 ligands ubiquitin and stromal cell-derived factor-1alpha functi; conditions: ref [24]; cited from earlier work

pEC50 ([1]; HTLA cells, overnight at 37°C, luminescence, n = 3 independent experiments, 95% confidence interval in brackets, read-out: EC50 (95% CI) β-arrestin 2 recruitment to ACKR3)	Substance	potency to recruit β-arrestin 2 to ACKR3, fold higher than CXCL11 ([1]; CXCL12 versus CXCL11, p < 0.01)	efficacy for β-arrestin 2 recruitment to ACKR3 (in words) ([1]; HTLA cells, n = 3, CXCL11 versus CXCL12)	effect of ACKR3 ligand pretreatment on aVP-induced IP3 production [2]	effect of AVPR1A co-expression on efficacy to recruit β-arrestin 2 to ACKR3-Tango [3]	effect of AVPR1A co-expression on potency to recruit β-arrestin 2 to ACKR3-Tango [3]	potency to induce β-arrestin recruitment to ACKR3, fold higher than CXCL11 [4]	effect on PE-induced vasoconstriction, comparison of ACKR3 ligands [5]	effect on aVP-induced vasoconstriction, comparison of ACKR3 ligands ([6]; 0.5 nM aVP, figure 1e, vehicle n = 4, CXCL11 n = 3, CXCL11 (3–73) n = 3, CXCL12 n = 3, p < 0.05 vehicle versus CXCL11 and CXCL12, p > 0.05 CXCL11 versus CXCL12)	β-arrestin 2 recruitment to AVPR1A-Tango by chemokines, absence of ACKR3 [7]	β-arrestin 2 recruitment to AVPR1A-Tango by chemokines, presence of ACKR3 [8]	AVPR1A cell surface expression after agonist [9]	ACKR3 cell surface expression after agonist [10]	effect on PE-induced vasoconstriction (outer diameter % change) [5]	binding to ACKR3 [11]	effect on aVP-induced vasoconstriction (outer diameter % change) ([6]; arteries at 80 mmHg preconstricted with 0.5 nM aVP, figure 1b, *p < 0.05 versus vehicle)
8.89	C-X-C chemokine ligand 12 [CXCL12]	2.2 -fold	comparable efficacy	inhibited aVP-induced IP3 production	significantly reduced the efficacy	without affecting the potency	twofold higher	attenuated PE- and aVP-induced vasoconstriction to a similar degree	attenuated PE- and aVP-induced vasoconstriction to a similar degree	did not induce β-arrestin 2 recruitment to AVPR1A-Tango	did not induce β-arrestin 2 recruitment to AVPR1A-Tango	–	–	–	–	–
–	CXCL11: ACKR3 and CXCR3 agonist, from Protein Foundry	–	–	–	significantly reduced the efficacy	without affecting the potency	–	attenuated PE- and aVP-induced vasoconstriction to a similar degree	–	–	did not induce β-arrestin 2 recruitment to AVPR1A-Tango	time-dependently reduced expression levels of both AVPR1A and ACKR3	time-dependently reduced expression levels of both AVPR1A and ACKR3	antagonized PE-induced vasoconstriction	–	–
–	ubiquitin	–	–	–	–	–	–	–	–	–	–	–	–	enhanced PE-induced vasoconstriction	does not bind to ACKR3	did not affect aVP-induced vasoconstriction
